Results as given in the supplement of paper PMC10307832.

What was measured:
Experiment in all cases: relative viability (nuclei count vs DMSO), 5 days (fraction); higher = more cells survive
Linsitinib + Lapatinib = compound: C[C@]1(O)C[C@@H](c2nc(-c3ccc4ccc(-c5ccccc5)nc4c3)c3c(N)nccn32)C1 [Linsitinib] + CS(=O)(=O)CCNCc1ccc(-c2ccc3ncnc(Nc4ccc(OCc5cccc(F)c5)c(Cl)c4)c3c2)o1 [Lapatinib] (partner 2 µM)
In short: (§1)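 Lung cancer cell lines in 1536-well plates were dosed by pin tool the day after seeding, either with one drug alone or with a fixed anchor-drug dose plus five library-drug doses (not always all listed) in √10 steps. After 5 days, cells were fixed and their nuclei stained in one step (final 0.05% Triton X-100, 1% formaldehyde, 1 ug/ml Hoechst), then counted on 4× images. Relative viability is the nuclei count in treated wells divided by that in vehicle wells. Values are medians of duplicate plates.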

Linsitinib + Pemetrexed = compound: C[C@]1(O)C[C@@H](c2nc(-c3ccc4ccc(-c5ccccc5)nc4c3)c3c(N)nccn32)C1 [Linsitinib] + Nc1nc2[nH]cc(CCc3ccc(C(=O)N[C@@H](CCC(=O)O)C(=O)O)cc3)c2c(=O)[nH]1 [Pemetrexed] (partner 0.2 µM)
In short: as §1

Linsitinib + Vorinostat = compound: C[C@]1(O)C[C@@H](c2nc(-c3ccc4ccc(-c5ccccc5)nc4c3)c3c(N)nccn32)C1 [Linsitinib] + O=C(CCCCCCC(=O)Nc1ccccc1)NO [Vorinostat] (partner 1 µM)
In short: as §1

Ispinesib + Luminespib = compound: Cc1ccc(C(=O)N(CCCN)[C@@H](c2nc3cc(Cl)ccc3c(=O)n2Cc2ccccc2)C(C)C)cc1 [Ispinesib] + CCNC(=O)c1noc(-c2cc(C(C)C)c(O)cc2O)c1-c1ccc(CN2CCOCC2)cc1 [Luminespib] (partner 0.01 µM)
In short: as §1

NCI-H1666
relative viability (Linsitinib + Lapatinib; first compound 0.01 µM): 0.806
relative viability (Linsitinib + Lapatinib; first compound 0.03162 µM): 0.506
relative viability (Linsitinib + Lapatinib; first compound 0.1 µM): 0.477
relative viability (Linsitinib + Lapatinib; first compound 0.3162 µM): 0.163
relative viability (Linsitinib + Lapatinib; first compound 1 µM): 0.183
relative viability (Linsitinib + Pemetrexed; first compound 0.01 µM): 0.823
relative viability (Linsitinib + Pemetrexed; first compound 0.03162 µM): 0.625
relative viability (Linsitinib + Pemetrexed; first compound 0.1 µM): 0.83
relative viability (Linsitinib + Pemetrexed; first compound 0.3162 µM): 0.722
relative viability (Linsitinib + Pemetrexed; first compound 1 µM): 0.741
relative viability (Linsitinib + Vorinostat; first compound 0.01 µM): 1
relative viability (Linsitinib + Vorinostat; first compound 0.03162 µM): 1.06
relative viability (Linsitinib + Vorinostat; first compound 0.1 µM): 1.02
relative viability (Linsitinib + Vorinostat; first compound 0.3162 µM): 0.617
relative viability (Linsitinib + Vorinostat; first compound 1 µM): 0.922
relative viability (Ispinesib + Luminespib; first compound 0.001 µM): 1
relative viability (Ispinesib + Luminespib; first compound 0.003162 µM): 0.973
relative viability (Ispinesib + Luminespib; first compound 0.01 µM): 0.946
relative viability (Ispinesib + Luminespib; first compound 0.03162 µM): 0.887
relative viability (Ispinesib + Luminespib; first compound 0.1 µM): 0.501

SK-MES-1
relative viability (Linsitinib + Lapatinib; first compound 0.01 µM): 0.434
relative viability (Linsitinib + Lapatinib; first compound 0.03162 µM): 0.456
relative viability (Linsitinib + Lapatinib; first compound 0.1 µM): 0.467
relative viability (Linsitinib + Lapatinib; first compound 0.3162 µM): 0.462
relative viability (Linsitinib + Lapatinib; first compound 1 µM): 0.435
relative viability (Linsitinib + Pemetrexed; first compound 0.01 µM): 0.991
relative viability (Linsitinib + Pemetrexed; first compound 0.03162 µM): 0.795
relative viability (Linsitinib + Pemetrexed; first compound 0.1 µM): 0.958
relative viability (Linsitinib + Pemetrexed; first compound 0.3162 µM): 0.784
relative viability (Linsitinib + Pemetrexed; first compound 1 µM): 0.753
relative viability (Linsitinib + Vorinostat; first compound 0.01 µM): 1.08
relative viability (Linsitinib + Vorinostat; first compound 0.03162 µM): 0.991
relative viability (Linsitinib + Vorinostat; first compound 0.1 µM): 1.14
relative viability (Linsitinib + Vorinostat; first compound 0.3162 µM): 0.637
relative viability (Linsitinib + Vorinostat; first compound 1 µM): 0.779
relative viability (Ispinesib + Luminespib; first compound 0.001 µM): 0.954
relative viability (Ispinesib + Luminespib; first compound 0.003162 µM): 0.691
relative viability (Ispinesib + Luminespib; first compound 0.01 µM): 0.966
relative viability (Ispinesib + Luminespib; first compound 0.03162 µM): 0.203
relative viability (Ispinesib + Luminespib; first compound 0.1 µM): 0.221

NCI-H2023
relative viability (Linsitinib + Lapatinib; first compound 0.01 µM): 0.821
relative viability (Linsitinib + Lapatinib; first compound 0.03162 µM): 0.411
relative viability (Linsitinib + Lapatinib; first compound 0.1 µM): 0.895
relative viability (Linsitinib + Lapatinib; first compound 0.3162 µM): 0.0717
relative viability (Linsitinib + Lapatinib; first compound 1 µM): 0.408
relative viability (Linsitinib + Pemetrexed; first compound 0.01 µM): 0.257
relative viability (Linsitinib + Pemetrexed; first compound 0.03162 µM): 0.134
relative viability (Linsitinib + Pemetrexed; first compound 0.1 µM): 0.238
relative viability (Linsitinib + Pemetrexed; first compound 0.3162 µM): 0.0952
relative viability (Linsitinib + Pemetrexed; first compound 1 µM): 0.176
relative viability (Linsitinib + Vorinostat; first compound 0.01 µM): 0.71
relative viability (Linsitinib + Vorinostat; first compound 0.03162 µM): 0.327
relative viability (Linsitinib + Vorinostat; first compound 0.1 µM): 0.903
relative viability (Linsitinib + Vorinostat; first compound 0.3162 µM): 0.196
relative viability (Linsitinib + Vorinostat; first compound 1 µM): 0.398
relative viability (Ispinesib + Luminespib; first compound 0.001 µM): 0.793
relative viability (Ispinesib + Luminespib; first compound 0.003162 µM): 0.628
relative viability (Ispinesib + Luminespib; first compound 0.01 µM): 1.07
relative viability (Ispinesib + Luminespib; first compound 0.03162 µM): 0.29
relative viability (Ispinesib + Luminespib; first compound 0.1 µM): 0.179
